Laboratory results published in patent US20230339851A1, “CXCR6 SULFONAMIDE COMPOUNDS” (CHEMOCENTRYX, INC., priority 2022, published 2023).

Target: T1, human CXCR6 (Homo sapiens, UniProt O00574)
T1 construct: expressed in transfected cells
Experiment: Radioligand Binding Assay (125I-CXCL16 displacement)
Conditions: L1.2 cells stably transfected with human CXCR6 cDNA, 0.1 nM 125I-CXCL16, 4° C., three-hour incubation; read-out: Potency (IC50)
Method in brief: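 L1.2 cells stably expressing human CXCR6 incubated 3 h at 4 °C in HBSS/0.1% BSA with 0.1 nM 125I-CXCL16 and graded compound concentrations. Bound radioactivity collected by filtration and counted; IC50 from 3-parameter nonlinear regression.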

T1 sequence (O00574 whole entry): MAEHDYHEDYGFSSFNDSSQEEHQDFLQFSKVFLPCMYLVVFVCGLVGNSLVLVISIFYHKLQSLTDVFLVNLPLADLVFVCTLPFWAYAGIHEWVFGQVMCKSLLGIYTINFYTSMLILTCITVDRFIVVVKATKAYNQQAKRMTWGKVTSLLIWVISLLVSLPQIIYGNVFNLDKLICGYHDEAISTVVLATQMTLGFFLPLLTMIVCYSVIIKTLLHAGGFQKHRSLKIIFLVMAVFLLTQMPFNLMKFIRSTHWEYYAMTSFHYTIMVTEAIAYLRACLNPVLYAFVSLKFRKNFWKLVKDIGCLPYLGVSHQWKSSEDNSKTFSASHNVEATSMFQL

First: CCOc1cc(NC(=O)C2CCCC(=O)C2)ccc1S(=O)(=O)Nc1cccc(OC(F)(F)F)c1 (stereo not shown) [Example 1.269]
Second: CCOc1cc(NC(=O)C2CCN(C)C(=O)C2)ccc1S(=O)(=O)Nc1cccc(OC(F)(F)F)c1 (stereo not shown) [Example 1.316]
The IC50 of the first is lower: 200 to 750 nM for the first, 750 to 2000 nM for the second. The first is the more potent here.

Compared with `CCOc1cc(NC(=O)[C@@H](CO)c2ccccc2)ccc1S(=O)(=O)Nc1cccc(C(C)(C)O)c1` [Example 1.270], `CCOc1cc(NC(=O)[C@H](CO)c2ccccc2)ccc1S(=O)(=O)Nc1cccc(OC(F)(F)F)c1` [Example 1.287] is lower in IC50: 2000 to 20000 nM for the first, 200 to 750 nM for the second.

Compared with `Cc1cc(NC(=O)C2CCCO2)ccc1S(=O)(=O)Nc1cccc(C(F)(F)F)c1` (stereo not shown) [Example 1.271], `Cc1cc(NC(=O)[C@@H]2CCCN2)ccc1S(=O)(=O)Nc1cccc(C(F)(F)F)c1` [Example 1.328] is lower in IC50: 2000 to 20000 nM for the first, 750 to 2000 nM for the second.

First: CCOc1cc(NC(=O)[C@@H](CO)c2ccccc2)ccc1S(=O)(=O)Nc1cccc(Cl)c1Cl [Example 1.272]
Second: CCOc1cc(NC(=O)[C@@H](CO)c2ccccc2)ccc1S(=O)(=O)Nc1cccc(OC(F)(F)F)c1C [Example 1.274]
The IC50 of the first is lower: 750 to 2000 nM for the first, 2000 to 20000 nM for the second.

`COc1cc(NC(=O)C(C)C2CCCCC2)ccc1S(=O)(=O)Nc1cccc(C(F)(F)F)c1` (stereo not shown) [Example 1.273] and `COc1cc(NC(=O)C2CCOCC2)ccc1S(=O)(=O)Nc1cccc(C(F)(F)F)c1` [Example 1.304] fall in the same range of IC50: 750 to 2000 nM for the first, 750 to 2000 nM for the second.

`CCOc1cc(NC(=O)[C@@H](NC(C)=O)C(C)C)ccc1S(=O)(=O)Nc1ccc(C)c(OC(F)(F)F)c1` [Example 1.275] and `CCN[C@H](C(=O)Nc1ccc(S(=O)(=O)Nc2ccc(C)c(OC(F)(F)F)c2)c(OCC)c1)C(C)C` [Example 1.296] cannot be ordered by IC50: no more than 200 nM for the first, no more than 200 nM for the second.

`CCOc1cc(NC(=O)[C@@H](O)c2ccccc2Cl)ccc1S(=O)(=O)Nc1cccc(OC(F)(F)F)c1` [Example 1.276] and `CCOc1cc(NC(=O)[C@@H](O)c2ccccc2F)ccc1S(=O)(=O)Nc1cccc(OC(F)(F)F)c1` [Example 1.329] cannot be ordered by IC50: no more than 200 nM for the first, no more than 200 nM for the second.

`CCOc1cc(NC(=O)[C@@H](O)C(C)C)ccc1S(=O)(=O)Nc1cccc(C(C)(C)C)c1` [Example 1.277] and `CCOc1cc(NC(=O)[C@@H](O)C(C)C)ccc1S(=O)(=O)Nc1cccc(C2CC2)c1` [Example 1.308] cannot be ordered by IC50: 200 to 750 nM for the first, no more than 200 nM for the second.

`CCOc1cc(NC(=O)C(O)c2ccc(C(F)(F)F)cc2)ccc1S(=O)(=O)Nc1cccc(OC(F)(F)F)c1` (stereo not shown) [Example 1.278] and `CCOc1cc(NC(=O)C(O)c2cccc(C(F)(F)F)c2)ccc1S(=O)(=O)Nc1cccc(OC(F)(F)F)c1` (stereo not shown) [Example 1.327] cannot be ordered by IC50: 200 to 750 nM for the first, no more than 200 nM for the second.

`CCOc1cc(NC(=O)[C@@H](O)c2ccccc2)ccc1S(=O)(=O)Nc1ccc(C)c(OC(F)(F)F)c1` [Example 1.279] and `CCOc1cc(NC(=O)C(O)c2ccc(Cl)cc2)ccc1S(=O)(=O)Nc1cccc(OC(F)(F)F)c1` (stereo not shown) [Example 1.338] cannot be ordered by IC50: no more than 200 nM for the first, no more than 200 nM for the second.

First: CCOc1cc(NC(=O)[C@@H]2C[C@@H](O)[C@@H](O)C2)ccc1S(=O)(=O)Nc1cccc(OC(F)(F)F)c1 [Example 1.280]
Second: CCOc1cc(NC(=O)C2CC=CC2)ccc1S(=O)(=O)Nc1cccc(OC(F)(F)F)c1 [Example 1.319]
The IC50 of the first is higher: 2000 to 20000 nM for the first, 750 to 2000 nM for the second.

`CCOc1cc(NC(=O)[C@H](O)C2CCCC2)ccc1S(=O)(=O)Nc1cccc(OC(F)(F)F)c1` [Example 1.281] and `CCOc1cc(NC(=O)C(C(=O)NCCO)C2CCCC2)ccc1S(=O)(=O)Nc1cccc(OC(F)(F)F)c1` (stereo not shown) [Example 1.339] cannot be ordered by IC50: no more than 200 nM for the first, no more than 200 nM for the second.

First: CCOc1cc(NC(=O)C2COCCO2)ccc1S(=O)(=O)Nc1cccc(OC(F)(F)F)c1 (stereo not shown) [Example 1.282]
Second: CCOc1cc(NC(=O)[C@H]2[C@H](C)COC[C@@H]2C)ccc1S(=O)(=O)Nc1cccc(OC(F)(F)F)c1 [Example 1.305]
The IC50 of the first is higher: 750 to 2000 nM for the first, no more than 200 nM for the second. The second is the more potent here.

`COc1cc(NC(=O)[C@@H](CO)C2CC2)ccc1S(=O)(=O)Nc1cccc(OC(F)(F)F)c1` [Example 1.283] and `CCOc1cc(NC(=O)C(CO)CC2CCOCC2)ccc1S(=O)(=O)Nc1cccc(OC(F)(F)F)c1` (stereo not shown) [Example 1.309] cannot be ordered by IC50: no more than 200 nM for the first, 200 to 750 nM for the second.

`Cc1cc(NC(=O)c2c(Br)cnn2C)ccc1S(=O)(=O)Nc1cccc(C(F)(F)F)c1` [Example 1.284] and `CC(=O)Nc1ccc(S(=O)(=O)Nc2cccc(C(F)(F)F)c2)c(C)c1` [Example 1.321] fall in the same range of IC50: 2000 to 20000 nM for the first, 2000 to 20000 nM for the second.

Compared with `CCOc1cc(NC(=O)C2CCC(O)CC2)ccc1S(=O)(=O)Nc1cccc(OC(F)(F)F)c1` (stereo not shown) [Example 1.285], `CCOc1cc(NC(=O)C2CCC=C[C@@H]2O)ccc1S(=O)(=O)Nc1cccc(OC(F)(F)F)c1` (stereo partly shown) [Example 1.303] is lower in IC50: 2000 to 20000 nM for the first, no more than 200 nM for the second. The second is the more potent here.

Compared with `C=Cc1cc(NS(=O)(=O)c2ccc(NC(=O)[C@@H](O)C(C)C)cc2OCC)ccc1C` [Example 1.286], `CCOc1cc(NC(=O)[C@@H](O)C(C)C)ccc1S(=O)(=O)Nc1ccc2c(c1)OC(F)(F)O2` [Example 1.340] is higher in IC50: no more than 200 nM for the first, 750 to 2000 nM for the second. The first is the more potent here.

`CCOc1cc(NC(=O)[C@@H](CO)C(C)C)ccc1S(=O)(=O)Nc1ccc(F)c(OC(F)(F)F)c1` [Example 1.288] and `CCOc1cc(NC(=O)[C@@H](CO)C(C)C)ccc1S(=O)(=O)Nc1ccc(C)c(OC(F)(F)F)c1` [Example 1.342] cannot be ordered by IC50: no more than 200 nM for the first, no more than 200 nM for the second.

Compared with `Cn1nccc1C(=O)Nc1ccc(S(=O)(=O)Nc2cccc(OC(F)(F)F)c2)c(C#N)c1` [Example 1.289], `COc1cc(NC(=O)c2ccnn2C)ccc1S(=O)(=O)Nc1cccc(C#N)c1` [Example 1.331] is higher in IC50: 750 to 2000 nM for the first, 2000 to 20000 nM for the second. The first is the more potent here.

First: CCOc1cc(NC(=O)[C@@H](O)C(C)C)ccc1S(=O)(=O)Nc1cccc(OC)c1C [Example 1.290]
Second: CCOc1cc(NC(=O)[C@@H](O)C(C)C)ccc1S(=O)(=O)Nc1cccc(C(F)(F)F)c1C [Example 1.312]
The IC50 of the first is lower: 750 to 2000 nM for the first, 2000 to 20000 nM for the second. The first is the more potent here.

`CCOC(=O)[C@H]1CC(C)=C(C)C[C@@H]1C(=O)Nc1ccc(S(=O)(=O)Nc2cccc(OC(F)(F)F)c2)c(OCC)c1` [Example 1.291] and `CCOc1cc(NC(=O)[C@H]2CCCC[C@@H]2OC)ccc1S(=O)(=O)Nc1cccc(OC(F)(F)F)c1` [Example 1.307] fall in the same range of IC50: 200 to 750 nM for the first, 200 to 750 nM for the second.

`Cc1cc(NC(=O)c2ccccc2Cl)ccc1S(=O)(=O)Nc1cccc(C(F)(F)F)c1` [Example 1.292] and `Cc1ccccc1C(=O)Nc1ccc(S(=O)(=O)Nc2cccc(C(F)(F)F)c2)c(C)c1` [Example 1.293] fall in the same range of IC50: 200 to 750 nM for the first, 200 to 750 nM for the second.

First: COc1ccccc1C(=O)Nc1ccc(S(=O)(=O)Nc2cccc(C(F)(F)F)c2)c(OC)c1 [Example 1.294]
Second: Cc1cc(NC(=O)c2cccnc2C)ccc1S(=O)(=O)Nc1cccc(C(F)(F)F)c1 [Example 1.306]
The IC50 of the first is higher: 2000 to 20000 nM for the first, 750 to 2000 nM for the second. The second is the more potent here.

First: CCOc1cc(NC(=O)[C@@H](CO)c2ccccc2)ccc1S(=O)(=O)Nc1ccc(C(F)(F)F)cc1 [Example 1.295]
Second: CCOc1cc(NC(=O)[C@@H](NC(C)=O)c2ccccc2)ccc1S(=O)(=O)Nc1cccc(OC(F)(F)F)c1 [Example 1.313]
The IC50 of the first is higher: 750 to 2000 nM for the first, no more than 200 nM for the second. The second is the more potent here.

`CCOc1cc(NC(=O)[C@@H](CO)C(C)CC)ccc1S(=O)(=O)Nc1cccc(OC(F)(F)F)c1` (stereo partly shown) [Example 1.297] and `CCOc1cc(NC(=O)[C@@H](NC(N)=O)C(C)C)ccc1S(=O)(=O)Nc1cccc(OC(F)(F)F)c1` [Example 1.334] cannot be ordered by IC50: no more than 200 nM for the first, no more than 200 nM for the second.

`CCOc1cc(NC(=O)[C@@H](NC=O)C(C)C)ccc1S(=O)(=O)Nc1cccc(OC(F)(F)F)c1` [Example 1.298] and `CCOc1cc(NC(=O)[C@@H](NS(C)(=O)=O)C(C)C)ccc1S(=O)(=O)Nc1cccc(OC(F)(F)F)c1` [Example 1.324] cannot be ordered by IC50: no more than 200 nM for the first, no more than 200 nM for the second.

`Cc1cc(NC(=O)c2cccc(Cl)c2)ccc1S(=O)(=O)Nc1cccc(C(F)(F)F)c1` [Example 1.299] and `Cc1cc(NC(=O)c2cccnc2)ccc1S(=O)(=O)Nc1cccc(C(F)(F)F)c1` [Example 1.330] fall in the same range of IC50: 200 to 750 nM for the first, 200 to 750 nM for the second.

First: CCOc1cc(NC(=O)C2CCCCN2)ccc1S(=O)(=O)Nc1cccc(OC(F)(F)F)c1 (stereo not shown) [Example 1.300]
Second: CCOc1cc(NC(=O)C2(O)CC2)ccc1S(=O)(=O)Nc1cccc(OC(F)(F)F)c1 [Example 1.318]
The IC50 of the first is lower: 200 to 750 nM for the first, 750 to 2000 nM for the second.

`Cc1cc(NC(=O)c2cocn2)ccc1S(=O)(=O)Nc1cccc(C(F)(F)F)c1` [Example 1.301] and `Cc1cc(NC(=O)c2c(C)noc2C)ccc1S(=O)(=O)Nc1cccc(C(F)(F)F)c1` [Example 1.325] fall in the same range of IC50: 2000 to 20000 nM for the first, 2000 to 20000 nM for the second.

Compared with `CCOc1cc(NC(=O)C2(COC)CC2)ccc1S(=O)(=O)Nc1cccc(OC(F)(F)F)c1` [Example 1.302], `CCOc1cc(NC(=O)C(CCO)C(F)(F)F)ccc1S(=O)(=O)Nc1cccc(OC(F)(F)F)c1` (stereo not shown) [Example 1.335] is lower in IC50: 750 to 2000 nM for the first, no more than 200 nM for the second.

`CCCc1cc(NC(=O)[C@@H](CO)C(C)C)ccc1S(=O)(=O)Nc1cccc(OC(F)(F)F)c1` [Example 1.311] and `Cc1cc(NC(=O)[C@@H](O)C(C)C)ccc1S(=O)(=O)Nc1cccc(OC(F)(F)F)c1` [Example 1.322] cannot be ordered by IC50: no more than 200 nM for the first, no more than 200 nM for the second.

First: CCOc1cc(NC(=O)c2ccc(N(C)C)cc2)ccc1S(=O)(=O)Nc1cccc(OC(F)(F)F)c1 [Example 1.315]
Second: CCOc1cc(NC(=O)c2ccc(N)nc2)ccc1S(=O)(=O)Nc1cccc(OC(F)(F)F)c1 [Example 1.326]
The IC50 of the first is higher: 750 to 2000 nM for the first, no more than 200 nM for the second.

First: CC(C)Oc1cc(NC(=O)c2ccnn2C)ccc1S(=O)(=O)Nc1cccc(C(F)(F)F)c1 [Example 1.317]
Second: COc1cc(NC(=O)c2ccnn2C)ccc1S(=O)(=O)Nc1cccc(N(C)C)c1 [Example 1.337]
The IC50 of the first is higher: 2000 to 20000 nM for the first, 750 to 2000 nM for the second. The second is the more potent here.

`CCOc1cc(NC(=O)[C@@H](O)C(C)C)ccc1S(=O)(=O)Nc1cccc(OC(F)(F)F)c1F` [Example 1.320] and `CCOc1cc(NC(=O)c2ccn(C)c(=O)c2C)ccc1S(=O)(=O)Nc1cccc(OC(F)(F)F)c1` [Example 1.332] cannot be ordered by IC50: 200 to 750 nM for the first, no more than 200 nM for the second.

First: COc1cc(NC(=O)[C@H]2CCCNC2)ccc1S(=O)(=O)Nc1cccc(C(F)(F)F)c1 [Example 1.323]
Second: COc1cc(NC(=O)c2ccnn2C)ccc1S(=O)(=O)Nc1cc(Cl)cc(OC(F)(F)F)c1 [Example 1.336]
The IC50 of the first is higher: 2000 to 20000 nM for the first, 200 to 750 nM for the second.
